Legend:
[1] = target: Vascular endothelial growth factor receptor 2 (Homo sapiens, UniProt P35968)
Description: Inhibition of Vascular endothelial growth factor receptor 2

[2] = target: Vascular endothelial growth factor receptor (Homo sapiens, UniProt P17948+P35916+P35968); details: endothelial cell
Description: Inhibition of VEGF-stimulated mitogenesis in endothelial cells

[3] = The pharmacokinetic parameter volume of distribution in vivo in rats; type: ADME, organism-based; details: rat, read-out: Vdss
[4] = The pharmacokinetic parameter half-life period in vivo in rats; type: ADME, organism-based; details: rat
[5] = Partition coefficient (logP); type: physicochemical; details: octanol/water
[6] = Bioavailability in rat; type: ADME, organism-based; details: in vivo
[7] = The pharmacokinetic parameter plasma clearance in vivo in rats; type: ADME, organism-based; details: rat, read-out: CI

Vascular endothelial growth factor receptor 2, sequence (P35968 whole entry): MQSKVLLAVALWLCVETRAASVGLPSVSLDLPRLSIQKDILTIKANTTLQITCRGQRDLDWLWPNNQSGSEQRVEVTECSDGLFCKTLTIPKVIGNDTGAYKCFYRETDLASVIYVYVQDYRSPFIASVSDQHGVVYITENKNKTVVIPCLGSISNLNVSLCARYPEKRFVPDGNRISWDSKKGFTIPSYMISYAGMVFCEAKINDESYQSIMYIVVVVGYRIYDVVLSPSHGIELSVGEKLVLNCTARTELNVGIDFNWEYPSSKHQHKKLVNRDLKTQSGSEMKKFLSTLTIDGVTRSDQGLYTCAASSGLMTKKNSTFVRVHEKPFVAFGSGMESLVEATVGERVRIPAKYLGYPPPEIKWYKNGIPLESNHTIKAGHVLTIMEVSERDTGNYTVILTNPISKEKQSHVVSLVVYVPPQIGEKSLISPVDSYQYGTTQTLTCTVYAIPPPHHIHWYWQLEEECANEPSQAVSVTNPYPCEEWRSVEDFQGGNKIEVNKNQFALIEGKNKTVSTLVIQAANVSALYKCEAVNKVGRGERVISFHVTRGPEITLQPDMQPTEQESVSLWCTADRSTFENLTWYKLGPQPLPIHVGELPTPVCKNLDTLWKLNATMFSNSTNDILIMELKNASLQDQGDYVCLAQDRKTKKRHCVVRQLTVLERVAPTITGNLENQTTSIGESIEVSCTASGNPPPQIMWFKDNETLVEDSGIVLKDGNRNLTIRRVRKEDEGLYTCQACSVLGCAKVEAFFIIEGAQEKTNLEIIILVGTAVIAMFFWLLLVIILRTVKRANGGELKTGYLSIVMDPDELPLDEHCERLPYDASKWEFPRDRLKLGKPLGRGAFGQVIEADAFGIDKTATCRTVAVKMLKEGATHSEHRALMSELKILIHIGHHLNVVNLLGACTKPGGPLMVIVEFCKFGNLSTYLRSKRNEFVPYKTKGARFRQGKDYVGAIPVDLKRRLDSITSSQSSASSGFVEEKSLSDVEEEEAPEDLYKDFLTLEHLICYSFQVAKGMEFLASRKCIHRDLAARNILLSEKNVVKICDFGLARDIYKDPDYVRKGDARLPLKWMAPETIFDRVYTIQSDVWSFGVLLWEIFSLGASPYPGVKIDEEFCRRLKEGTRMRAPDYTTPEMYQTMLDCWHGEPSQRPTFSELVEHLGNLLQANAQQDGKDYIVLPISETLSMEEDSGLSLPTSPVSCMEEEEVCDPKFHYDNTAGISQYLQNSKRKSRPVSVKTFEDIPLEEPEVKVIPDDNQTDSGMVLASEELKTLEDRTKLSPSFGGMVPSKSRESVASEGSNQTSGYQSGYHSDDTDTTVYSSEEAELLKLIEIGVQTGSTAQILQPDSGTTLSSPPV

SMILES	IC50 [2]	Vd [3]	half-life [4]	logP [5]	bioavailability [6]	other results
c1ccc(-c2cnn3cc(-c4ccc(OCCN5CCOCC5)cc4)cnc23)cc1	32 nM	–	–	–	–	IC50 [1]: 9 nM
c1cc(-c2cnn3cc(-c4ccc(OCCN5CCCCC5)cc4)cnc23)cs1 [L-21649]	–	16 L/kg	5.1 h	> 4	18%	–
COc1ccc(-c2cnc3c(-c4ccncc4)cnn3c2)cc1	150 nM	–	–	–	–	–
c1cc(-c2cnn3cc(-c4ccc(OCCN5CCOCC5)cc4)cnc23)ccn1	31 nM	–	–	–	–	–
CN1CCN(CCCn2ccc(-c3cnc4c(-c5ccccc5)cnn4c3)cc2=O)CC1	–	–	–	2	–	–
CN1CCN(CCCn2ccc(-c3cnc4c(-c5ccsc5)cnn4c3)cc2=O)CC1	–	7.9 L/kg	3.4 h	1.6	56%	–

More lines, main results first:

IC50 [2]	Vd [3]	half-life [4]	logP [5]	bioavailability [6]	SMILES	other results
29 nM	6 L/kg	3.3 h	–	42%	c1cncc(-c2cnn3cc(-c4ccc(OCCN5CCCCC5)cc4)cnc23)c1	clearance [7]: 23 mL/min/kg; IC50 [1]: 20 nM
–	–	–	> 4	–	COc1ccc(-c2cnc3c(-c4ccsc4)cnn3c2)cc1	–
–	–	–	2.4	–	O=c1cc(-c2cnc3c(-c4ccccc4)cnn3c2)ccn1CCCN1CCCCC1	–
